Test results taken from ChEMBL document CHEMBL4808186, “Structure-Based Discovery of Pyrimidine Aminobenzene Derivatives as Potent Oral Reversal Agents against P-gp- and BCRP-Mediated Multidrug Resistance” (J Med Chem, 2021).
Active and inactive are the calls of the source. The rule behind the calls is not given here.

How the values were obtained:
K562 = assay: Cytotoxicity against human K562 cells incubated for 48 hrs by MTT assay; type: functional, cell-based; conditions: K562, 48 h
K562/A02 [1] = assay: Cytotoxicity against P-gp overexpressing human K562/A02 cells incubated for 48 hrs by MTT assay; type: functional, cell-based; conditions: K562/A02, 48 h, read-out: IC50
[2] = n-Octanol/water partition coefficient, logP of the compound by UHPLC analysis; type: physicochemical
[3] = molecular target: T1, ATP-dependent translocase ABCB1 (Homo sapiens, UniProt P08183); assay: Inhibition of P-gp-mediated multidrug resistance in human K562/A02 cells assessed as Adriamycin accumulation at 1 to 10 uM pretreated 1 hr followed by treated with adriamycin measured after 180 mins by fluorescence microscopy; type: cell-based; conditions: k562/a02, 4 h, dose 1-10 µM, time 240 min
MDCK-II [4] = assay: Inhibition of BCRP-mediated multidrug resistance in MDCK-II cells assessed as mitoxantrone accumulation […] pretreated 1 hr followed by treated with mitoxantrone measured after 180 mins by fluorescence microscopy; type: cell-based; conditions: Canis lupus familiaris, time 240.0 min
[5] = molecular target: T1, ATP-dependent translocase ABCB1; assay: Inhibition of P-gp-mediated multidrug resistance in human K562/A02 cells assessed as Adriamycin accumulation pretreated 1 hr followed by treated with adriamycin measured after 180 mins by flow cytometry; type: cell-based; conditions: k562/a02, 4 h, time 240 min
MDCK-II [6] = assay: Inhibition of BCRP-mediated multidrug resistance in MDCK-II cells assessed as mitoxantrone accumulation at 0.1 to 5 uM pretreated 1 hr followed by treated with mitoxantrone measured after 180 mins by flow cytometry; type: cell-based; conditions: Canis lupus familiaris, dose 0.1-5 µM, time 240.0 min
[7] = molecular target: T1, ATP-dependent translocase ABCB1; assay: Inhibition of P-gp-mediated multidrug resistance in human K562/A02 cells assessed as suppression of Rh123 efflux at 10 uM treated after 90 mins of Rh123 treatment measure up to 120 mins by flow cytometry; type: cell-based; conditions: k562/a02, 10 µM
K562/A02 [8] = assay: Potentiation of adriamycin-induced apoptosis in human K562/A02 cells assessed as viable cells at 0.5 uM incubated for 48 hrs in presence of 10 uM adriamycin by Annexin-V/FITC-based flow cytometry (reference value: 96.5%); type: functional; conditions: read-out: Activity
K562/A02 [9] = assay: Potentiation of adriamycin-induced apoptosis in human K562/A02 cells assessed as early apoptotic cells at 0.5 uM incubated for 48 hrs in presence of 10 uM adriamycin by Annexin-V/FITC-based flow cytometry (reference value: 2.9%); type: functional
K562/A02 [10] = assay: Potentiation of adriamycin-induced apoptosis in human K562/A02 cells assessed as late apoptotic cells at 0.5 uM incubated for 48 hrs in presence of 10 uM adriamycin by Annexin-V/FITC-based flow cytometry (reference value: 0.4%); type: functional
K562/A02 [11] = assay: Potentiation of adriamycin-induced apoptosis in human K562/A02 cells assessed as necrotic cells at 0.5 uM incubated for 48 hrs in presence of 10 uM adriamycin by Annexin-V/FITC-based flow cytometry (reference value: 0.3%); type: functional
K562/A02 [12] = assay: Potentiation of adriamycin-induced apoptosis in human K562/A02 cells assessed as viable cells at 5 uM incubated for 48 hrs in presence of 10 uM adriamycin by Annexin-V/FITC-based flow cytometry (reference value: 96.5%); type: functional; conditions: read-out: Activity
K562/A02 [13] = assay: Potentiation of adriamycin-induced apoptosis in human K562/A02 cells assessed as early apoptotic cells at 5 uM incubated for 48 hrs in presence of 10 uM adriamycin by Annexin-V/FITC-based flow cytometry (reference value: 2.9%); type: functional
K562/A02 [14] = assay: Potentiation of adriamycin-induced apoptosis in human K562/A02 cells assessed as late apoptotic cells at 5 uM incubated for 48 hrs in presence of 10 uM adriamycin by Annexin-V/FITC-based flow cytometry (reference value: 0.4%); type: functional
K562/A02 [15] = assay: Potentiation of adriamycin-induced apoptosis in human K562/A02 cells assessed as necrotic cells at 5 uM incubated for 48 hrs in presence of 10 uM adriamycin by Annexin-V/FITC-based flow cytometry (reference value: 0.3%); type: functional
K562/A02 [16] = assay: Potentiation of adriamycin-induced apoptosis in human K562/A02 cells assessed as viable cells at 10 uM incubated for 48 hrs in presence of 10 uM adriamycin by Annexin-V/FITC-based flow cytometry (reference value: 96.5%); type: functional; conditions: read-out: Activity
K562/A02 [17] = assay: Potentiation of adriamycin-induced apoptosis in human K562/A02 cells assessed as early apoptotic cells at 10 uM incubated for 48 hrs in presence of 10 uM adriamycin by Annexin-V/FITC-based flow cytometry (reference value: 2.9%); type: functional
K562/A02 [18] = assay: Potentiation of adriamycin-induced apoptosis in human K562/A02 cells assessed as late apoptotic cells at 10 uM incubated for 48 hrs in presence of 10 uM adriamycin by Annexin-V/FITC-based flow cytometry (reference value: 0.4%); type: functional
K562/A02 [19] = assay: Potentiation of adriamycin-induced apoptosis in human K562/A02 cells assessed as necrotic cells at 10 uM incubated for 48 hrs in presence of 10 uM adriamycin by Annexin-V/FITC-based flow cytometry (reference value: 0.3%); type: functional
K562/A02 [20] = assay: Effect on P-gp expression in human K562/A02 cells at 1 to 10 uM incubated for 48 hrs by Western blot analysis; type: functional, cell-based; conditions: dose 1-10 µM
MDCK-II [21] = assay: Effect on BCRP expression in MDCK-II cells at 1 to 10 uM incubated for 48 hrs by Western blot analysis; type: functional, cell-based; conditions: Canis lupus familiaris, dose 1-10 µM
K562/A02 [22] = assay: Antitumor activity against human K562/A02 cells xenografted in BALB/c mouse assessed as reduction in tumor size at 4 mg/kg, iv once every 2 days for 14 days in presence of 2 mg/kg adriamycin; type: functional, organism-based; conditions: time 2.0 day
K562/A02 [23] = assay: Antitumor activity against human K562/A02 cells xenografted in BALB/c mouse assessed as reduction in tumor volume at 4 mg/kg, iv once every 2 days for 14 days in presence of 2 mg/kg adriamycin; type: functional, organism-based; conditions: time 2.0 day
K562/A02 [24] = assay: Antitumor activity against human K562/A02 cells xenografted in BALB/c mouse assessed as reduction in tumor weight at 4 mg/kg, iv once every 2 days for 14 days in presence of 2 mg/kg adriamycin; type: functional, organism-based; conditions: time 2.0 day
K562/A02 [25] = assay: Antitumor activity against human K562/A02 cells xenografted in BALB/c mouse assessed as degeneration and necrosis of tumor tissue at 4 mg/kg, iv single dose in presence of 2 mg/kg adriamycin by HE staining; type: functional, organism-based
[26] = Toxicity in BALB/c mouse xenografted with human K562/A02 cells assessed as degeneration and necrosis of liver tissue at 4 mg/kg, iv once every 2 days for 14 days in presence of 2 mg/kg adriamycin by HE staining; type: organism-based; conditions: in vivo, 48 h, time 2 day
[27] = Toxicity in BALB/c mouse xenografted with human K562/A02 cells assessed as degeneration and necrosis of kidney tissue at 4 mg/kg, iv once every 2 days for 14 days in presence of 2 mg/kg adriamycin by HE staining; type: organism-based; conditions: in vivo, 48 h, time 2 day
MDCK-II [28] = assay: cells; conditions: Canis lupus familiaris, 48 h
Description: Cytotoxicity against MDCK-II cells incubated for 48 hrs by MTT assay

MDCK-II [29] = assay: cells; conditions: Canis lupus familiaris, 48 h; remark: listed apart in the source
Description: Cytotoxicity against BCRP-overexpressing MDCK-II cells incubated for 48 hrs by MTT assay

T1 sequence (P08183 whole entry): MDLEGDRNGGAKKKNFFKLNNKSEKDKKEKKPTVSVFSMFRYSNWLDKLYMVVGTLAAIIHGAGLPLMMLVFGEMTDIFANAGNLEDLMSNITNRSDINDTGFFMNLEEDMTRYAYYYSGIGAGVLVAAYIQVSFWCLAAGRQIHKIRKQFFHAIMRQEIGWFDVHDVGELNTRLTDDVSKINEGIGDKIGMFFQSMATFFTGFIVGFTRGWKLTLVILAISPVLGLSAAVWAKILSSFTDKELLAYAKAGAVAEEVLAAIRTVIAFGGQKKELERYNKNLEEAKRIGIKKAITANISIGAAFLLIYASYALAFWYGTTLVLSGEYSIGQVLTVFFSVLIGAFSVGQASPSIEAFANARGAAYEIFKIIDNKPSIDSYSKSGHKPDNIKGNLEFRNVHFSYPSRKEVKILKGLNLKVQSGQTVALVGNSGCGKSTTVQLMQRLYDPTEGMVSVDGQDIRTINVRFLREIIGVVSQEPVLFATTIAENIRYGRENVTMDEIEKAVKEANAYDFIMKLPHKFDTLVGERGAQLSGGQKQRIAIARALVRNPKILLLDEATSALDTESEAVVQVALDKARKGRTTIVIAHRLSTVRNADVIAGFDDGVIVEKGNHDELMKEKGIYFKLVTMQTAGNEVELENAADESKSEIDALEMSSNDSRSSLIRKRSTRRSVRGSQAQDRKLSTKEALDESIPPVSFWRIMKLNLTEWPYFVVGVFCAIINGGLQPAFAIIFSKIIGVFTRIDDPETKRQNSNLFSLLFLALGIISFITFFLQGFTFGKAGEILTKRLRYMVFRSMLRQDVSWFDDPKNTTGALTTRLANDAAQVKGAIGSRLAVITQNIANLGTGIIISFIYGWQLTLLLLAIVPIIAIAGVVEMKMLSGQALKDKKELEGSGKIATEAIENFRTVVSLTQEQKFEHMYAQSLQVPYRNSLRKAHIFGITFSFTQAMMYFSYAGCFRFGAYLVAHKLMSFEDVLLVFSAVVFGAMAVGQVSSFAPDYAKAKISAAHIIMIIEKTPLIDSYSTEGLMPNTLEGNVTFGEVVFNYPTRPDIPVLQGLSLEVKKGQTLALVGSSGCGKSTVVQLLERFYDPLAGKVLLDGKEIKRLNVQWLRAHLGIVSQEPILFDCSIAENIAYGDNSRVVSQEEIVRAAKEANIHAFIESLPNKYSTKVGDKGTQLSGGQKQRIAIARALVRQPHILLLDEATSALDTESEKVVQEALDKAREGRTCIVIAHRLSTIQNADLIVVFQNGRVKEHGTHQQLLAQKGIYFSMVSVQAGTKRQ

logP [2]: 2.13
Activity [3]: Active
Activity [5]: Dose-Dependent Effect
Activity [7]: Active
Structure (SMILES): COc1cc2c(cc1OC)CN(CCNC(=O)c1ccc(C)c(Nc3nccc(-c4ccco4)n3)c1)CC2
IC50 (K562): > 100 µM
IC50 (K562/A02 [1]): > 100 µM
Activity (MDCK-II [4]): Active
Activity (MDCK-II [6]): Active
viability at 0.5 µM (K562/A02 [8]): 84.8%
Activity (K562/A02 [9]): 10.9%
Activity (K562/A02 [10]): 3.2%
Activity (K562/A02 [11]): 1.1%
viability at 5 µM (K562/A02 [12]): 76.2%
Activity (K562/A02 [13]): 12.3%
Activity (K562/A02 [14]): 9.2%
Activity (K562/A02 [15]): 2.4%
viability at 10 µM (K562/A02 [16]): 68.3%
Activity (K562/A02 [17]): 19.3%
Activity (K562/A02 [18]): 9.8%
Activity (K562/A02 [19]): 2.5%
Activity (K562/A02 [20]): inactive
Activity (MDCK-II [21]): inactive
Activity (K562/A02 [22]): Active
Activity (K562/A02 [23]): Active
Activity (K562/A02 [24]): Active
Activity (K562/A02 [25]): Active
Activity [26]: Non-Toxic
Activity [27]: Non-Toxic
IC50 (MDCK-II [28]): > 100 µM
IC50 (MDCK-II [29]): > 100 µM
